How the values were obtained:
[1] = Stability study: histidine challenge, radiochemical composition by HPLC on RP18 column; assay type: physicochemical; conditions: stirred 1 hour at 50° C.
Description: (§1) The complexes are stable, so that at room temperature, no exchange of chelating agents for histidine is carried out. The. chelates and tricarbonyl-Tc-99m and Re-tricarbonyl complexes that are described in this invention are thus clearly better suited for diagnostic and therapeutic purposes than the previously known systems. A special advantage of the compounds according to the invention consists in the fact that their syntheses can be directed without using sulfur protective groups. This makes their synthesis very simple, and in addition, such compounds that are described according to the invention in particular offer the advantage that after radiochemical labeling, no further foreign molecules are contained in the solutions that are to be administered intravenously for radiodiagnosis or radiotherapy. Such foreign molecules frequently disrupt the biodistribution of the radiopharmaceutical agent and can adversely affect the diagnostic information content of the SPECT imaging. In addition, the labelings on such ligands or their coupling products can be performed on substances that accumulate selectively on diseased tissues under very mild conditions. […]

[2] = Incubation of the Tc-99m-tricarbonyl complex in serum; assay type: in vitro ADME; conditions: 26 hours of incubation in serum
Description: as §1

radiochemical composition (HPLC chromatogram) after histidine challenge ([1]; 20 mg of histidine)	radiochemical composition (HPLC chromatogram) after histidine challenge ([1]; 10 mg of histidine)	decomposition products after incubation in serum [2]	Substance
unchanged	–	–	Tc-99m-Tricarbonyl Complex of {2-(1H-pyrazol1-yl)-ethylimino}-diacetic Acid-monopropylamide [Example 7b]
–	unchanged	no decomposition products	Tc-99m-Tricarbonyl complex of N-(hydroxycarboxy-methyl)-N-(N′-propyl-carbamido-methyl)-S-ethyl-2-mercaptoethylamine [Example 2b]
